Test results from US20180206491A1, “SUBSTITUTED CYCLIC ARYL AND HETEROARYL CARBOXYLIC ACID HYDRAZIDES OR SALTS THEREOF AND USE THEREOF TO INCREASE STRESS TOLERANCE IN PLANTS” (Bayer CropScience Aktiengesellschaft, priority 2015, published 2018).

Assays:
Conditions in all cases: spray application
Triticum aestivum [1] = assay: In vivo analyses Part B: drought stress, appearance versus stressed control plants in categories; design: key: 0: no positive effect; +: slight positive effect; ++: clear positive effect; +++: strong positive effect
Protocol: (§1) Seeds of monocotyledonous and dicotyledonous crop plants were sown in sandy loam in plastic pots, covered with soil or sand and cultivated in a greenhouse under good growth conditions. The test plants are treated at the early leaf stage (BBCH10-BBCH13). To assure uniform water supply before commencement of stress, the potted plants were supplied with water by dam irrigation prior to substance application. The inventive compounds were first formulated as wettable powders (WP) or dissolved in a solvent mixture. The further dilution was effected with water supplemented with 0.2% wetting agent (e.g. agrotin). The finished spray liquor was sprayed onto the green parts of the plant at an equivalent water application rate of 600 l/ha. Substance application was followed immediately by stress treatment of the plants. Drought stress was induced by gradual drying out under the following conditions: “Day”: 14 hours with illumination at ˜26-30° C. “Night”: 10 hours without illumination at ˜18-20° C. The duration of the respective stress phases was guided mainly by the condition of the stressed control plants. It was ended (by re-irrigating and transfer to a greenhouse with good growth conditions) as soon as irreversible damage was observed on the stressed control plants. The end of the stress phase was followed by an about 4-7-day recovery phase, during which the plants were once again kept under good growth conditions in a greenhouse. The duration of the recovery phase was guided mainly by when the trial plants had attained a state which enabled visual scoring of potential effects, and was therefore variable. Once this juncture had been reached, the appearance of the plants treated with test substances was recorded in comparison to the stressed control plants by the following categories: • 0 no positive effect • + slight positive effect • ++ clear positive effect • +++ strong positive effect In order to rule out any influence on the effects observed by any fungicidal or insecticidal action of the test compounds, it was additionally ensured that the tests proceeded without fungal infection or insect infestation. The values reported in tables B-1 and B-2 below are mean values of the results from at least three repeats. Effects of selected compounds of the general formula (I) under drought stress according to the following tables B-1 and B-2: […]

Brassica napus [2] = assay: as above; design: key: 0: no positive effect; +: slight positive effect; ++: clear positive effect; +++: strong positive effect
Protocol: as §1

Brassica napus [3] = assay: In vivo analyses: drought stress, visual scoring of damage, efficacy EF
Protocol: (§2) Seeds of monocotyledonous and dicotyledonous crop plants were sown in sandy loam in wood-fiber or plastic pots, covered with soil or sand and cultivated in a greenhouse under good growth conditions. The trial plants were treated at the early leaf stage (BBCH10-BBCH13). To assure uniform water supply before commencement of stress, the potted plants were supplied with water by dam irrigation prior to substance application. The inventive compounds formulated in the form of wettable powders (WP) were sprayed onto the green parts of the plants as an aqueous suspension at an equivalent water application rate of 600 I/ha with addition of 0.2% wetting agent (e.g. agrotin). Substance application was followed immediately by stress treatment of the plants. For this purpose, the wood-fiber pots were transferred in plastic inserts in order to prevent them from subsequently drying out too quickly. Drought stress was induced by gradual drying out under the following conditions: “Day”: 14 hours with illumination at ˜26-30° C. “Night”: 10 hours without illumination at ˜18-20° C. The duration of the respective stress phases was guided mainly by the condition of the stressed control plants. It was ended (by re-irrigating and transfer to a greenhouse with good growth conditions) as soon as irreversible damage was observed on the stressed control plants. The end of the stress phase was followed by an about 4-7-day recovery phase, during which the plants were once again kept under good growth conditions in a greenhouse. The duration of the recovery phase was guided mainly by when the trial plants had attained a state which enabled visual scoring of potential effects, and is therefore variable. Once this juncture was reached, the intensities of damage were scored visually in comparison to untreated, unstressed controls of the same age. The damage intensity was at first assessed in percent. These values were then used to calculate the efficacy of the test compounds by the following formula: [formula] EF: Efficacy DIs: Damage intensity of the stressed control plants DIt: Damage intensity of the stressed plants treated with test compound The values reported in tables A-1 to A-3 below are mean values from at least one trial with at least two repeats, showing the effects of selected compounds of the general formula (I) under drought stress on various crop plants.

Zea mays = assay: as above
Protocol: as §2

Triticum aestivum [4] = assay: as above
Protocol: as §2

COC1CCCN(N(Cc2nccc(Cl)c2Cl)C(=O)c2ccccc2C(F)(F)F)C1 (stereo not shown) [A13-40]
Effect (TRZAS) (Triticum aestivum [1]; 250 g/ha): +

N#Cc1ccccc1CN(C(=O)c1ccnnc1)N1CCCC1 [F1-61]
Effect (BRSNS) (Brassica napus [2]; 25 g/ha): + | Effect (TRZAS) (Triticum aestivum [1]; 100 g/ha): +

COC1CCCN(N(Cc2cccc(C#N)c2)C(=O)c2ccncc2)C1 (stereo not shown) [C8-62]
EF [%] (BRSNS) (Brassica napus [3]; 2.5 g/ha): >5% | EF [%] (ZEAMX) (Zea mays; 250 g/ha): >5%

N#Cc1ccccc1CN(C(=O)c1ccncc1)N1CCCCC1 [C4-61]
EF [%] (TRZAS) (Triticum aestivum [4]; 25 g/ha): >5% | EF [%] (ZEAMX) (Zea mays; 250 g/ha): >5%

CN1CCN(N(Cc2ccccc2C#N)C(=O)c2ccncc2)CC1 [C6-61]
EF [%] (BRSNS) (Brassica napus [3]; 2.5 g/ha): >5% | EF [%] (TRZAS) (Triticum aestivum [4]; 25 g/ha): >5%

O=C(c1ccncc1)N(Cc1ccccc1Cl)N1CCOCC1 [C7-1]
EF [%] (BRSNS) (Brassica napus [3]; 2.5 g/ha): >5%

CN1CCN(N(Cc2ccccc2Cl)C(=O)c2ccccc2C(F)(F)F)CC1 [A12-1]
Effect (TRZAS) (Triticum aestivum [1]; 250 g/ha): +

N#Cc1ccccc1CN(C(=O)c1cnccc1C(F)(F)F)N1CCOCC1 [B5-61, N-(2-Cyanobenzyl)-N-(morpholin-4-yl)-4-(trifluoromethyl)-nicotinamide]
Effect (BRSNS) (Brassica napus [2]; 250 g/ha): + | Effect (TRZAS) (Triticum aestivum [1]; 250 g/ha): +

O=C(c1ccccc1Cl)N(Cc1ccc(F)cc1F)N1CCCC1 [A7-15]
Effect (BRSNS) (Brassica napus [2]; 250 g/ha): + | Effect (TRZAS) (Triticum aestivum [1]; 25 g/ha): +

CC(c1ccc(F)cc1)N(C(=O)c1cnccc1C(F)(F)F)N1CCCC1 (stereo not shown) [B2-159]
Effect (BRSNS) (Brassica napus [2]; 250 g/ha): + | Effect (TRZAS) (Triticum aestivum [1]; 250 g/ha): +

O=C(c1ccc(Cl)cc1Cl)N(Cc1ccc(F)cc1F)N1CCCC1 [A8-15]
Effect (TRZAS) (Triticum aestivum [1]; 25 g/ha): +

O=C(c1cnccc1C(F)(F)F)N(Cc1ccccc1F)N1CCOCC1 [B5-11]
Effect (BRSNS) (Brassica napus [2]; 250 g/ha): +

COC1CCCN(N(Cc2ccccn2)C(=O)c2ccccc2C(F)(F)F)C1 (stereo not shown) [A13-21]
Effect (TRZAS) (Triticum aestivum [1]; 250 g/ha): +

COC1CCCN(N(Cc2ccccc2Cl)C(=O)c2ccccc2C(F)(F)F)C1 (stereo not shown) [A13-1]
Effect (BRSNS) (Brassica napus [2]; 250 g/ha): + | Effect (TRZAS) (Triticum aestivum [1]; 250 g/ha): +

COC1CCN(N(Cc2ccccn2)C(=O)c2ccccc2C(F)(F)F)C1 (stereo not shown) [A3-21, N-(3-Methoxypyrrolidin-1-yl)-N-(pyridin-2-ylmethyl)-2-(trifluoromethyl)benzamide]
EF [%] (ZEAMX) (Zea mays; 250 g/ha): >5%

O=C(c1ccc(Cl)c(Cl)c1)N(Cc1cc(Cl)ccc1Cl)N1CCCC1 [A5-6]
EF [%] (ZEAMX) (Zea mays; 250 g/ha): >5%

COC1CCCN(N(Cc2ccccn2)C(=O)c2cnccc2C(F)(F)F)C1 (stereo not shown) [B7-21]
Effect (BRSNS) (Brassica napus [2]; 25 g/ha): +

CN1CCN(N(Cc2ccccc2Cl)C(=O)c2cnccc2C(F)(F)F)CC1 [B6-1]
Effect (TRZAS) (Triticum aestivum [1]; 250 g/ha): +

N#Cc1ccccc1CN(C(=O)c1cccc2nnsc12)N1CCCC1 [A14-61]
Effect (BRSNS) (Brassica napus [2]; 250 g/ha): + | Effect (TRZAS) (Triticum aestivum [1]; 25 g/ha): +

CN1CCN(N(Cc2ccccn2)C(=O)c2ccccc2C(F)(F)F)CC1 [A12-21, N—(N-Methylpyridazin-1-yl)-N-(pyridin-2-ylmethyl)-2-(trifluoromethyl)-benzamide]
Effect (BRSNS) (Brassica napus [2]; 250 g/ha): +

COc1c(C)cnc(CN(C(=O)c2ccccc2C(F)(F)F)N2CCCC2)c1C [A2-37]
EF [%] (TRZAS) (Triticum aestivum [4]; 250 g/ha): >5% | EF [%] (ZEAMX) (Zea mays; 25 g/ha): >5%

O=C(c1cnccc1C(F)(F)F)N(Cc1ccc(Cl)nc1)N1CCCC1 [B2-94]
Effect (TRZAS) (Triticum aestivum [1]; 25 g/ha): +

O=C(c1ccccc1C(F)(F)F)N(Cc1ccc2ccccc2n1)N1CCCC1 [A2-122]
EF [%] (BRSNS) (Brassica napus [3]; 250 g/ha): >5% | EF [%] (TRZAS) (Triticum aestivum [4]; 250 g/ha): >5% | EF [%] (ZEAMX) (Zea mays; 250 g/ha): >5%

O=C(c1ccccc1Cl)N(Cc1ccc(Cl)nc1)N1CCCC1 [A7-94]
Effect (TRZAS) (Triticum aestivum [1]; 25 g/ha): +

O=C(c1cnccc1C(F)(F)F)N(Cc1ccc(F)cc1F)N1CCCC1 [B2-15]
Effect (TRZAS) (Triticum aestivum [1]; 250 g/ha): +

COC1CCCN(N(Cc2cccc(Cl)c2)C(=O)c2ccncc2)C1 (stereo not shown) [C8-2]
EF [%] (BRSNS) (Brassica napus [3]; 250 g/ha): >5%

O=C(c1cnccc1C(F)(F)F)N(Cc1ncc(C(F)(F)F)cc1Cl)N1CCCC1 [B2-36]
Effect (BRSNS) (Brassica napus [2]; 250 g/ha): + | Effect (TRZAS) (Triticum aestivum [1]; 25 g/ha): +

CN1CCN(N(Cc2ccccn2)C(=O)c2cnccc2C(F)(F)F)CC1 [B6-21]
Effect (BRSNS) (Brassica napus [2]; 250 g/ha): + | Effect (TRZAS) (Triticum aestivum [1]; 250 g/ha): +

O=C(c1cnccc1C(F)(F)F)N(Cc1ccccn1)N1CCOCC1 [B5-21]
Effect (BRSNS) (Brassica napus [2]; 250 g/ha): +

CN1CCN(N(Cc2nccc(Cl)c2Cl)C(=O)c2ccccc2C(F)(F)F)CC1 [A12-40]
Effect (BRSNS) (Brassica napus [2]; 250 g/ha): + | Effect (TRZAS) (Triticum aestivum [1]; 25 g/ha): +

COc1ccccc1C(=O)N(Cc1ccc(F)cc1F)N1CCCC1 [A9-15]
Effect (TRZAS) (Triticum aestivum [1]; 25 g/ha): +

COC1CCCN(N(Cc2ccccc2Cl)C(=O)c2cnccc2C(F)(F)F)C1 (stereo not shown) [B7-1]
Effect (TRZAS) (Triticum aestivum [1]; 25 g/ha): ++

O=C(c1ccccc1C(F)(F)F)N(Cc1ccc(F)cc1F)N1CCCC1 [A2-15]
Effect (BRSNS) (Brassica napus [2]; 250 g/ha): + | Effect (TRZAS) (Triticum aestivum [1]; 250 g/ha): +

N#Cc1ccccc1CN(C(=O)c1cnccc1C(F)(F)F)N1CCCC1 [B2-61, N-(2-Cyanobenzyl)-N-(pyrrolidin-1-yl)-4-(trifluoromethyl)nicotinamide]
EF [%] (BRSNS) (Brassica napus [3]; 25 g/ha): >5% | EF [%] (TRZAS) (Triticum aestivum [4]; 25 g/ha): >5% | EF [%] (ZEAMX) (Zea mays; 250 g/ha): >5%

CN1CCN(N(Cc2ccccc2C#N)C(=O)c2cnccc2C(F)(F)F)CC1 [B6-61]
Effect (TRZAS) (Triticum aestivum [1]; 250 g/ha): +

COC1CCCN(N(Cc2ccccc2C#N)C(=O)c2ccccc2C(F)(F)F)C1 (stereo not shown) [A13-61]
Effect (BRSNS) (Brassica napus [2]; 25 g/ha): +

O=C(c1ccc(F)cc1C(F)(F)F)N(Cc1ccccc1Cl)N1CCCC1 [A6-1]
EF [%] (TRZAS) (Triticum aestivum [4]; 25 g/ha): >5% | EF [%] (ZEAMX) (Zea mays; 250 g/ha): >5%

COc1c(C)cnc(CN(C(=O)c2ccc(F)cc2C(F)(F)F)N2CCCC2)c1C [A6-37]
EF [%] (BRSNS) (Brassica napus [3]; 2.5 g/ha): >5%

COC1CCCN(N(Cc2ccccc2C#N)C(=O)c2cnccc2C(F)(F)F)C1 (stereo not shown) [B7-61]
Effect (TRZAS) (Triticum aestivum [1]; 250 g/ha): +
